Measurements taken from patent publication US20250275996A1, “COMBINATION OF TUNICAMYCIN-TYPE ANTIBIOTIC WITH POLYMYXINS AND USES THEREOF” (priority 2024, published 2025).

Columns and labels:
P. aeruginosa ATCC 2783 = assay: MIC by resazurin staining assay, P. aeruginosa; format: cell-based, Pseudomonas aeruginosa
Procedure: (§1) The […] growth inhibition (MIC) using natural tunicamycin (TUN), a tunicamycin derivative TunR2, polymyxin B, or a combination of polymyxin B with TUN or TunR2 were tested. Testing was performed using the resazurin staining assay. The resazurin staining assay uses the reduction by bacterial viable cells of the blue, non-fluorescent, and non-toxic dye, resazurin, to pink, fluorescent resorufin to assess the viability of biofilms. The Minimal Inhibitory Concentration (MIC) values where determined using standard microbiological methods, for example by spotting dilutions of the compounds or combinations on solid agar media plates after inoculating with bacteria, yeast, or buffer alone, followed by incubating for a defined period. This method results in clearing zones on agar plates.
(§2) To determine the MIC for polymyxin B alone, plates inoculated with E. coli MG1655 (Gram-negative bacterium), P. aeruginosa ATCC 2783 (Gram-negative bacterium), B. subtilis MW10 (Gram-positive bacterium), S. cerevisiae (eukaryote) in TYG, or DMSO alone (Control) were spotted with a dilution gradient of polymyxin B, and incubated for 24 hours at 30° C.
(§3) To determine the MIC for TUN or TunR2 in the presence or absence of polymyxin B, plates inoculated with E. coli MG1655, or P. aeruginosa ATCC 2783 in TYG, were spotted with a dilution gradient of Tun or TunR2 in the presence or absence of polymyxin B at sub-MIC concentration (MIC/2), or DMSO alone (Control). Images of two plates inoculated with E. coli are shown in FIG. 4A and FIG. 4B, and images of two plates inoculated with P. aeruginosa are shown in FIG. 4C and FIG. 4D.
The activity of Cefquinome alone, or in the presence of TunR2, polymyxin B, or polymyxin B and TunR2 on P. aeruginosa was tested. The MIC was determined using the resazurin staining assay described in Example 1.
Plates inoculated with P. aeruginosa, or DMSO alone (Control) in TYG were spotted with a dilution gradient of Cefquinome in the presence of TunR2, polymyxin B, or polymyxin B and TunR2, and incubated for 24 hours at 37° C.

E. coli MG1655 = assay: MIC by resazurin staining assay, E. coli; format: cell-based, Escherichia coli
Procedure: as §1, §2, §3
(§4) The activity of TUN or TunR2 in the presence or absence of polymyxin B on Serratia marcescens (a honey bee pathogen) or E. coli was tested. The MIC was determined using the resazurin staining assay described in Example 1.
Plates inoculated with S. marcescens B-2544, E. coli, or DMSO alone (Control) in TYG were spotted with a dilution gradient of TUN or TunR2 in the presence or absence of a sub-MIC concentration of polymyxin B (half the MIC concentration), and incubated for 24 hours at 37° C. An image of a plate inoculated with S. marcescens is shown in FIG. 7A, and an image of a plate inoculated with E. coli is shown in FIG. 7B. […] The results obtained for E. coli compare well with the MICs of other antibiotics as taught by m. de Boer et al. (2015, “Minimum Inhibitory Concentrations of Selected Antimicrobials Against Escherichia Coli and Trueperella pyogenes of Bovine Uterine Origin,” J Dairy Sci. 98:4427-4438).

B. subtilis MW10 = assay: MIC by resazurin staining assay, B. subtilis; format: cell-based, Bacillus subtilis; details: 24 hours at 30° C., TYG
Procedure: as §1, §2

S. cerevisiae = assay: MIC by resazurin staining assay, yeast; format: cell-based, Saccharomyces cerevisiae; details: 24 hours at 30° C., TYG
Procedure: as §1, §2

S. marcescens B-2544 = assay: MIC by resazurin staining assay, S. marcescens; format: cell-based, Serratia marcescens; details: 24 hours at 37° C.
Procedure: as §1, §4
Plates inoculated with S. marcescens B-2544, E. coli, or DMSO alone (Control) in TYG were spotted with a dilution gradient of TUN or TunR2 in the presence or absence of a sub-MIC concentration of polymyxin B (half the MIC concentration), and incubated for 24 hours at 37° C. […]

[1] = alone, dilution series, 24 hours at 37° C.

`CO/N=C(\C(=O)N[C@@H]1C(=O)N2C(C(=O)[O-])=C(C[n+]3cccc4c3CCCC4)CS[C@H]12)c1csc(N)n1` [Cefquinome] was tested, and the “MIC for Cefquinome (FIG. 8 legend)” value (P. aeruginosa ATCC 2783; P. aeruginosa in TYG, Cefquinome alone, 48 hours at 37° C.) was 10.0 µg/mL, the “MIC for Cefquinome alone” value (P. aeruginosa ATCC 2783; P. aeruginosa, 24 hours at 37° C.) was 10 µg/mL and the “MIC for Cefquinome in the presence of polymyxin B and TunR2” value (P. aeruginosa ATCC 2783; P. aeruginosa, with 2.5 μg/mL polymyxin B and 6.25 μg/mL TunR2, 24 hours at 37° C.) was 1.25 µg/mL. The “MIC for Cefquinome in the presence of polymyxin B” value (P. aeruginosa ATCC 2783; P. aeruginosa, with 2.5 μg/mL polymyxin B, 24 hours at 37° C.) was 5 µg/mL and the “MIC for Cefquinome in the presence of TunR2” value (P. aeruginosa ATCC 2783; P. aeruginosa, with 6.25 μg/mL TunR2, 24 hours at 37° C.) was 10 µg/mL.
With polymyxin B the MIC of polymyxin (E. coli MG1655; E. coli, polymyxin alone) was 0.625 µg/mL, the MIC of polymyxin (P. aeruginosa ATCC 2783; Pseudomonas, polymyxin alone) was 5.0 µg/mL and the “MIC for polymyxin B alone” value (B. subtilis MW10) was 2.5 µg/mL. For the same compound, the “effect on yeast (MIC for polymyxin B alone)” value (S. cerevisiae) was “not detectable”.
For tunicamycin, the “MIC in the presence of polymyxin B” value (E. coli MG1655; Example 2, E. coli, sub-MIC polymyxin B (half the MIC), 24 hours at 37° C.) was 0.313 µg/mL, the “effect on E. coli when used alone” value (E. coli MG1655; Example 2, absence of polymyxin B, 24 hours at 37° C., any of the concentrations tested) was “neither TUN nor TunR2 had a detectable effect” and the “effect on E. coli in the absence of polymyxin B” value (E. coli MG1655; [1]) was “neither Tun nor TunR2 had noticeable effect”. For the same compound, the “growth of E. coli in the presence of polymyxin B” value (E. coli MG1655; with polymyxin B at MIC/2 (0.313 μg/mL), 24 hours at 37° C.) was “no E. coli or P. aeruginosa grew”, the “effect on P. aeruginosa in the absence of polymyxin B” value (P. aeruginosa ATCC 2783; [1]) was “neither Tun nor TunR2 had noticeable effect” and the “growth of P. aeruginosa in the presence of polymyxin B” value (P. aeruginosa ATCC 2783; with polymyxin B at MIC/2 (2.5 μg/mL), 24 hours at 37° C.) was “no E. coli or P. aeruginosa grew”. For the same compound, the “MIC in the presence of polymyxin B” value (S. marcescens B-2544; S. marcescens, sub-MIC polymyxin B (half the MIC)) was 5.0 µg/mL and the “effect on S. marcescens when used alone” value (S. marcescens B-2544; absence of polymyxin B, any of the concentrations tested) was “neither TUN nor TunR2 had a detectable effect”.
